Assay results reported in patent publication US20250034136A1 (Nimbus Wadjet, Inc., priority 2023, published 2025).

Columns and labels:
[1] = tested on: p21 induction in HCT116 cells; assay: p21 induction in HCT116 cells; type: cell-based; conditions: Homo sapiens, HCT-116, 24 h, HCT116 cells, 24 h compound incubation; read-out: P21_EC50
Summary of the method: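 HCT116 cells, 2,000/well, treated 24 h at 37 °C with 11-point compound dilutions in duplicate. Fixed, then immunostained for p21 and GAPDH and read by near-IR imaging at 800/700 nm. Normalized to DMSO (low) and reference WRN inhibitor (high) controls; EC50 from non-linear regression.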

[2] = biological target: WRN (BV08), human Werner helicase (Uniprot Q14191, amino acids 517-1235 with L1074F point mutation) (Homo sapiens (Human), UniProt Q14191, L1074F); assay: WRN (BV08) ADP-Glo assay; type: biochemical; conditions: class symbols A-E, read-out: ADP-Glo_hWRN_IC50
Chain of WRN (BV08), human Werner helicase (Uniprot Q14191, amino acids 517-1235 with L1074F point mutation) (Q14191 other isoform, or with tags, fused parts or gaps L1074F (already in the parent)): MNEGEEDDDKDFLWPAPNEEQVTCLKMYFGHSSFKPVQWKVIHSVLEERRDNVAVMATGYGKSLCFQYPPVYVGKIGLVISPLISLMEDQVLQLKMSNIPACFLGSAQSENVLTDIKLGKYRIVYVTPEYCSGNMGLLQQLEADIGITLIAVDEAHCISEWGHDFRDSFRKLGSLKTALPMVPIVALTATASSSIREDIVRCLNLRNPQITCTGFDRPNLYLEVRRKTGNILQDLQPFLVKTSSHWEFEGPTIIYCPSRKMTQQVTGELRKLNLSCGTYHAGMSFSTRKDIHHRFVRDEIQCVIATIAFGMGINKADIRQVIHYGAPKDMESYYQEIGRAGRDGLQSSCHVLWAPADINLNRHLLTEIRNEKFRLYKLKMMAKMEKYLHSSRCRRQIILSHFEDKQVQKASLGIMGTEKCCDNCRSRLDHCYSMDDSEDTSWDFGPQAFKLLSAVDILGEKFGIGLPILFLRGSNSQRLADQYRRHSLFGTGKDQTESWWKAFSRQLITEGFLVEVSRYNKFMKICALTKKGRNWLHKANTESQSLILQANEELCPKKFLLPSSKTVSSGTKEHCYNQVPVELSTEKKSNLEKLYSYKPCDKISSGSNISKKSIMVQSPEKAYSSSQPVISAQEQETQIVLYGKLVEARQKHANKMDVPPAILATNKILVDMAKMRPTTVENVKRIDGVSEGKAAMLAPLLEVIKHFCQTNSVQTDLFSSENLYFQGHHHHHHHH

SMILES	EC50 [1]	IC50 [2]
CCc1c(N2CC3CC2CN3C(=O)c2ncnc(C)c2O)c(=O)c2nc(N(C)C)cnc2n1CC(=O)Nc1ccc(C(F)(F)F)cc1Cl (stereo not drawn) [I-258, N-[2-chloro-4-(trifluoromethyl)phenyl]-2-[2-(dimethylamino)-6-ethyl-7-[5-(5-hydroxy-6-methylpyrimidine-4-carbonyl)-2,5-diazabicyclo[2.2.1]heptan-2-yl]-8-oxo-5H,8H-pyrido[2,3-b]pyrazin-5-yl]acetamide]	> 5000 nM	100 to 500 nM
CCc1c(N2CCN(C(=O)c3ncnc(C)c3O)[C@H]3CC[C@@H]32)c(=O)c2nc(C)cnc2n1CC(=O)Nc1ccc(C(F)(F)F)cc1Cl [I-262, N-[2-chloro-4-(trifluoromethyl)phenyl]-2-{6-ethyl-7-[(1S,6S)-5-(5-hydroxy-6-methylpyrimidine-4-carbonyl)-2,5-diazabicyclo[4.2.0]octan-2-yl]-2-methyl-8-oxo-5H,8H-pyrido[2,3-b]pyrazin-5-yl}acetamide]	< 500 nM	5 to 50 nM
CCc1c(N2CCN(C(=O)c3ncnc(C)c3O)[C@H]3CC[C@@H]32)c(=O)c2nc(N3CCNCC3)cnc2n1CC(=O)Nc1ccc(C(F)(F)F)cc1Cl [I-263, N-[2-chloro-4-(trifluoromethyl)phenyl]-2-{6-ethyl-7-[(1S,6S)-5-(5-hydroxy-6-methylpyrimidine-4-carbonyl)-2,5-diazabicyclo[4.2.0]octan-2-yl]-8-oxo-2-(piperazin-1-yl)-5H,8H-pyrido[2,3-b]pyrazin-5-yl}acetamide]	> 5000 nM	5 to 50 nM
CCc1c(N2CCN(C(=O)c3ncnc(C)c3O)[C@H]3CC[C@@H]32)c(=O)c2nc(N(C)CCO)cnc2n1CC(=O)Nc1ccc(C(F)(F)F)cc1Cl [I-264, N-[2-chloro-4-(trifluoromethyl)phenyl]-2-{6-ethyl-7-[(1S,6S)-5-(5-hydroxy-6-methylpyrimidine-4-carbonyl)-2,5-diazabicyclo[4.2.0]octan-2-yl]-2-[(2-hydroxyethyl)(methyl)amino]-8-oxo-5H,8H-pyrido[2,3-b]pyrazin-5-yl}acetamide]	< 500 nM	5 to 50 nM
CCc1c(N2CCN(C(=O)c3cccc4ncoc34)[C@H]3CC[C@@H]32)c(=O)c2nc(N(C)C)cnc2n1CC(=O)Nc1ccc(C(F)(F)F)cc1Cl [I-265, 2-{7-[(1S,6S)-5-(1,3-benzoxazole-7-carbonyl)-2,5-diazabicyclo[4.2.0]octan-2-yl]-2-(dimethylamino)-6-ethyl-8-oxo-5H,8H-pyrido[2,3-b]pyrazin-5-yl}-N-[2-chloro-4-(trifluoromethyl)phenyl]acetamide]	2000 to 5000 nM	5 to 50 nM
CCc1c(N2CCN(C(=O)c3ncnc(C)c3O)[C@H]3CC[C@@H]32)c(=O)c2nc(N[C@H](C)[C@H](C)O)cnc2n1CC(=O)Nc1ccc(C(F)(F)F)cc1Cl [I-266, N-[2-chloro-4-(trifluoromethyl)phenyl]-2-{6-ethyl-7-[(1S,6S)-5-(5-hydroxy-6-methylpyrimidine-4-carbonyl)-2,5-diazabicyclo[4.2.0]octan-2-yl]-2-{[(2R,3S)-3-hydroxybutan-2-yl]amino}-8-oxo-5H,8H-pyrido[2,3-b]pyrazin-5-yl}acetamide]	500 to 2000 nM	5 to 50 nM
CCc1c(N2CCN(C(=O)c3ncnc(C)c3O)[C@H]3CC[C@@H]32)c(=O)c2nc(N(C)[C@H]3C[C@H](OC)C3)cnc2n1CC(=O)Nc1ccc(C(F)(F)F)cc1Cl [I-267, N-[2-chloro-4-(trifluoromethyl)phenyl]-2-{6-ethyl-7-[(1S,6S)-5-(5-hydroxy-6-methylpyrimidine-4-carbonyl)-2,5-diazabicyclo[4.2.0]octan-2-yl]-2-{methyl[(1r,3r)-3-methoxycyclobutyl]amino}-8-oxo-5H,8H-pyrido[2,3-b]pyrazin-5-yl}acetamide]	< 500 nM	5 to 50 nM
CCc1c(N2CCN(C(=O)c3ncnc(C)c3O)[C@H]3CC[C@@H]32)c(=O)c2nc(-c3cn[nH]c3)cnc2n1CC(=O)Nc1ccc(C(F)(F)F)cc1Cl [I-268, N-[2-chloro-4-(trifluoromethyl)phenyl]-2-{6-ethyl-7-[(1S,6S)-5-(5-hydroxy-6-methylpyrimidine-4-carbonyl)-2,5-diazabicyclo[4.2.0]octan-2-yl]-8-oxo-2-(1H-pyrazol-4-yl)-5H,8H-pyrido[2,3-b]pyrazin-5-yl}acetamide]	< 500 nM	≤ 5 nM
CCc1c(N2CCN(C(=O)c3ncnc(C)c3O)[C@H]3CC[C@@H]32)c(=O)c2nc(N3CC[C@@H](O)C3)cnc2n1CC(=O)Nc1ccc(C(F)(F)F)cc1Cl [I-270, N-[2-chloro-4-(trifluoromethyl)phenyl]-2-{6-ethyl-7-[(1S,6S)-5-(5-hydroxy-6-methylpyrimidine-4-carbonyl)-2,5-diazabicyclo[4.2.0]octan-2-yl]-2-[(3R)-3-hydroxypyrrolidin-1-yl]-8-oxo-5H,8H-pyrido[2,3-b]pyrazin-5-yl}acetamide]	500 to 2000 nM	5 to 50 nM
CCc1c(N2CCN(C(=O)c3ncnc(C)c3O)[C@H]3CC[C@@H]32)c(=O)c2nc(N3CC[C@H](O)C3)cnc2n1CC(=O)Nc1ccc(C(F)(F)F)cc1Cl [I-271, N-[2-chloro-4-(trifluoromethyl)phenyl]-2-{6-ethyl-7-[(1S,6S)-5-(5-hydroxy-6-methylpyrimidine-4-carbonyl)-2,5-diazabicyclo[4.2.0]octan-2-yl]-2-[(3S)-3-hydroxypyrrolidin-1-yl]-8-oxo-5H,8H-pyrido[2,3-b]pyrazin-5-yl}acetamide]	500 to 2000 nM	5 to 50 nM
CCc1c(N2CCN(C(=O)c3ncnc(C)c3O)[C@H]3CC[C@@H]32)c(=O)c2nc(-c3cncs3)cnc2n1CC(=O)Nc1ccc(C(F)(F)F)cc1Cl [I-272, N-[2-chloro-4-(trifluoromethyl)phenyl]-2-{6-ethyl-7-[(1S,6S)-5-(5-hydroxy-6-methylpyrimidine-4-carbonyl)-2,5-diazabicyclo[4.2.0]octan-2-yl]-8-oxo-2-(1,3-thiazol-5-yl)-5H,8H-pyrido[2,3-b]pyrazin-5-yl}acetamide]	< 500 nM	5 to 50 nM

Next, values leading:

EC50 [1]	IC50 [2]	SMILES
500 to 2000 nM	5 to 50 nM	CCc1c(N2CCN(C(=O)c3cc(C)cnc3OC)[C@H]3CC[C@@H]32)c(=O)c2nc(N(C)C)cnc2n1CC(=O)Nc1ccc(C(F)(F)F)cc1Cl [I-259, N-[2-chloro-4-(trifluoromethyl)phenyl]-2-[2-(dimethylamino)-6-ethyl-7-[(1S,6S)-5-(2-methoxy-5-methylpyridine-3-carbonyl)-2,5-diazabicyclo[4.2.0]octan-2-yl]-8-oxo-5H,8H-pyrido[2,3-b]pyrazin-5-yl]acetamide]
< 500 nM	5 to 50 nM	CCc1c(N2CCN(C(=O)c3c(OC)ncc(C)c3O)[C@H]3CC[C@@H]32)c(=O)c2nc(N(C)C)cnc2n1CC(=O)Nc1ccc(C(F)(F)F)cc1Cl [I-261, N-[2-chloro-4-(trifluoromethyl)phenyl]-2-[2-(dimethylamino)-6-ethyl-7-[(1S,6S)-5-(4-hydroxy-2-methoxy-5-methylpyridine-3-carbonyl)-2,5-diazabicyclo[4.2.0]octan-2-yl]-8-oxo-5H,8H-pyrido[2,3-b]pyrazin-5-yl]acetamide]
< 500 nM	5 to 50 nM	CCc1c(N2CCN(C(=O)c3ncnc(C)c3O)[C@H]3CC[C@@H]32)c(=O)c2nc(N(C)C[C@H](C)OC)cnc2n1CC(=O)Nc1ccc(C(F)(F)F)cc1Cl [I-269, N-[2-chloro-4-(trifluoromethyl)phenyl]-2-{6-ethyl-7-[(1S,6S)-5-(5-hydroxy-6-methylpyrimidine-4-carbonyl)-2,5-diazabicyclo[4.2.0]octan-2-yl]-2-{[(2S)-2-methoxypropyl](methyl)amino}-8-oxo-5H,8H-pyrido[2,3-b]pyrazin-5-yl}acetamide]
< 500 nM	5 to 50 nM	CCc1c(N2CCN(C(=O)c3c(Oc4cnn(C)c4)ncc(C)c3O)[C@H]3CC[C@@H]32)c(=O)c2nc(N(C)C)cnc2n1CC(=O)Nc1ccc(C(F)(F)F)cc1Cl [I-273, N-[2-chloro-4-(trifluoromethyl)phenyl]-2-[2-(dimethylamino)-6-ethyl-7-[(1S,6S)-5-{4-hydroxy-5-methyl-2-[(1-methyl-1H-pyrazol-4-yl)oxy]pyridine-3-carbonyl}-2,5-diazabicyclo[4.2.0]octan-2-yl]-8-oxo-5H,8H-pyrido[2,3-b]pyrazin-5-yl]acetamide]
< 500 nM	5 to 50 nM	CCc1c(N2CCN(C(=O)c3c(OC)ncc(OC)c3O)[C@H]3CC[C@@H]32)c(=O)c2nc(N(C)C)cnc2n1CC(=O)Nc1ccc(C(F)(F)F)cc1Cl [I-274]
< 500 nM	5 to 50 nM	CCOc1ncc(C)c(O)c1C(=O)N1CCN(c2c(CC)n(CC(=O)Nc3ccc(C(F)(F)F)cc3Cl)c3ncc(N(C)C)nc3c2=O)[C@H]2CC[C@@H]21 [I-275, N-[2-chloro-4-(trifluoromethyl)phenyl]-2-[2-(dimethylamino)-7-[(1S,6S)-5-(2-ethoxy-4-hydroxy-5-methylpyridine-3-carbonyl)-2,5-diazabicyclo[4.2.0]octan-2-yl]-6-ethyl-8-oxo-5H,8H-pyrido[2,3-b]pyrazin-5-yl]acetamide]
> 5000 nM	5 to 50 nM	CCc1c(N2CCN(C(=O)c3c(OC)ncc(C(F)F)c3O)[C@H]3CC[C@@H]32)c(=O)c2nc(N(C)C)cnc2n1CC(=O)Nc1ccc(C(F)(F)F)cc1Cl [I-280, N-[2-chloro-4-(trifluoromethyl)phenyl]-2-{7-[(1S,6S)-5-[5-(difluoromethyl)-4-hydroxy-2-methoxypyridine-3-carbonyl]-2,5-diazabicyclo[4.2.0]octan-2-yl]-2-(dimethylamino)-6-ethyl-8-oxo-5H,8H-pyrido[2,3-b]pyrazin-5-yl}acetamide]
